Measured values as given in BigSolDB 2.1.

Clc1ccc2c(Cl)ccnc2c1
Settings | solubility (mole fraction)
in THF, 299.4 K | 0.0683
in THF, 303.2 K | 0.0701
in THF, 309.1 K | 0.0745
in THF, 313.3 K | 0.081
in THF, 318.1 K | 0.0887
in THF, 323.2 K | 0.1
in THF, 328.3 K | 0.119
in THF, 333.4 K | 0.14
in acetone, 299.2 K | 0.0591
in acetone, 303.2 K | 0.0614
in acetone, 309.1 K | 0.0658
in acetone, 313.3 K | 0.0725
in acetone, 318.1 K | 0.0818
in acetone, 323.2 K | 0.0954
in acetone, 328.3 K | 0.113
in acetonitrile, 299.8 K | 0.00603
in acetonitrile, 303.2 K | 0.00814
in acetonitrile, 308.1 K | 0.0127
in acetonitrile, 313.3 K | 0.0208
in acetonitrile, 318.1 K | 0.0307
in acetonitrile, 323.2 K | 0.0489
in acetonitrile, 328.3 K | 0.0788
in acetonitrile, 333.4 K | 0.13
in ethanol, 299.8 K | 0.0113
in ethanol, 303.2 K | 0.0145
in ethanol, 308.1 K | 0.0224
in ethanol, 313.3 K | 0.0364
in ethanol, 318.1 K | 0.0564
in ethanol, 323.2 K | 0.0886
in ethanol, 328.3 K | 0.135
in ethanol, 333.4 K | 0.208
in water, 298 K | 2.84e-05
in water, 303.3 K | 2.9e-05
in water, 308.2 K | 3.01e-05
in water, 313.1 K | 3.21e-05
in water, 318.3 K | 3.45e-05
in water, 323.3 K | 3.88e-05
in water, 327.7 K | 4.2e-05
in water, 333.3 K | 4.85e-05
